Test results taken from patent US20140315933A1, “CHEMICAL COMPOUNDS” (Pfizer Limited, priority 2013, published 2014).

Target: T1, URAT-1 transporter (Homo sapiens, UniProt Q96S37)
T1 construct: expressed in transfected cells
Assay: URAT-1 inhibitor activity: [14C]-uric acid uptake into CHO-URAT1(L)GFP#8 (CHO#8) cells, scintillation proximity
Type: cell-based
Summary of the method: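 Scintillation proximity read-out of 30 nM (final) [14C]-uric acid uptake over three hours at room temperature in chloride-free HEPES buffer pH 7.4. Compounds, 0–10 μM final with 0.25% DMSO, were added 15 minutes before substrate; cells were a clonal CHO line with human URAT1(L)-eGFP, preincubated 1 hour in chloride buffer.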

T1 sequence (Q96S37 with tags, fused parts or gaps): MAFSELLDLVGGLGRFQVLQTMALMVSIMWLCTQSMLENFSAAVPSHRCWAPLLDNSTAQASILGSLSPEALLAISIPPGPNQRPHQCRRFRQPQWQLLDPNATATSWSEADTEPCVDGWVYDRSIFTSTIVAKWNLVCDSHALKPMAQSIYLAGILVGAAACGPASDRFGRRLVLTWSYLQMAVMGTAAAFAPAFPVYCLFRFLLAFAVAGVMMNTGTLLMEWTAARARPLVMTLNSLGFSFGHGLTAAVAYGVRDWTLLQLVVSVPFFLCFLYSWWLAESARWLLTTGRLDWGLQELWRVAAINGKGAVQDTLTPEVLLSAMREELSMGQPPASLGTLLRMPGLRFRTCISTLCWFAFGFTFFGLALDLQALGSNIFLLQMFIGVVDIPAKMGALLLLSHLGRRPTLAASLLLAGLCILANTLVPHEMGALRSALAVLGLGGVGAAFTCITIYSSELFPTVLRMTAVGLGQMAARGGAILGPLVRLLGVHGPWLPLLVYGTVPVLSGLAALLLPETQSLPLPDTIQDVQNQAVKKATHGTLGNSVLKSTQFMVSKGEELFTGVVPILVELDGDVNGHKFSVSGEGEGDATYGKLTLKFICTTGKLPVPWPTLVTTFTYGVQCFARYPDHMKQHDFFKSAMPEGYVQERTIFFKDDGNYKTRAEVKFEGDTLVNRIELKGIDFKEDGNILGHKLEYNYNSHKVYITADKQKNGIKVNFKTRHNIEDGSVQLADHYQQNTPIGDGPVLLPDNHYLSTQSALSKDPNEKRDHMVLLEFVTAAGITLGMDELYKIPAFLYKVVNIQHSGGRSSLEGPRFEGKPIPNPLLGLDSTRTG

With `CC(C)c1ncccc1Oc1cc(F)c(S(=O)(=O)Nc2nncs2)cc1Cl` [compound 298] the IC50 was 4.39 µM.

`COc1cc(C)ccc1Oc1cc(F)c(S(=O)(=O)Nc2nncs2)cc1Cl` [compound 299] was tested, and the IC50 was 4.37 µM.

In the case of `COc1ccc(C)cc1Oc1cc(F)c(S(=O)(=O)Nc2nncs2)cc1Cl` [compound 300], the IC50 is reported as 0.329 µM.

`COc1cc(C)cc(Oc2cc(F)c(S(=O)(=O)Nc3nncs3)cc2Cl)c1` [compound 301] was tested, and the IC50 was 0.382 µM.

Compound `COc1cc(Cl)cc(Oc2cc(F)c(S(=O)(=O)Nc3nncs3)cc2Cl)c1` [compound 302] has an IC50 of 1.06 µM.

With `COc1cccc(Cl)c1Oc1cc(F)c(S(=O)(=O)Nc2nncs2)cc1Cl` [compound 303] the IC50 was > 1.43 µM.

`CCSc1ncccc1Oc1cc(F)c(S(=O)(=O)Nc2nncs2)cc1Cl` [compound 304] gave an IC50 of 1.01 µM.

With `COc1ccccc1Oc1cc(F)c(S(=O)(=O)Nc2nncs2)cc1Cl` [compound 305] the IC50 was > 5.78 µM.

Work on `COc1cccc(Oc2cc(F)c(S(=O)(=O)Nc3nncs3)cc2Cl)c1` [compound 306] yielded an IC50 of 2.41 µM.

With `CCc1ncccc1Oc1cc(F)c(S(=O)(=O)Nc2nncs2)cc1Cl` [compound 307] the IC50 was > 7.19 µM.

In the case of `Cc1ccnc(C)c1Oc1cc(F)c(S(=O)(=O)Nc2nncs2)cc1Cl` [compound 308], the IC50 is reported as > 10 µM.

`COc1ccc(C#N)cc1Oc1cc(F)c(S(=O)(=O)Nc2nncs2)cc1Cl` [compound 309] was tested, and the IC50 was > 10 µM.

`CSc1ncccc1Oc1cc(F)c(S(=O)(=O)Nc2nncs2)cc1Cl` [compound 310] was tested, and the IC50 was 0.864 µM.

For `Cc1cncc(Oc2cc(F)c(S(=O)(=O)Nc3nncs3)cc2Cl)c1` [compound 311], the IC50 was 1.1 µM.

`COc1cc(F)ccc1Oc1cc(F)c(S(=O)(=O)Nc2nncs2)cc1Cl` [compound 312] was tested, and the IC50 was > 6.45 µM.

`Cc1ccncc1Oc1cc(F)c(S(=O)(=O)Nc2nncs2)cc1Cl` [compound 313] showed an IC50 of 3.17 µM.

With `Cc1ccc(Oc2cc(F)c(S(=O)(=O)Nc3nncs3)cc2Cl)cc1` [compound 314] the IC50 was > 10 µM.

Compound `COc1ccc(F)c(Oc2cc(F)c(S(=O)(=O)Nc3nncs3)cc2Cl)c1` [compound 315] has an IC50 of 2.19 µM.

In the case of `COc1cc(C#N)c(F)cc1Oc1cc(F)c(S(=O)(=O)Nc2nncs2)cc1Cl` [compound 316], the IC50 is reported as > 10 µM.

Compound `COc1ccc(Oc2cc(F)c(S(=O)(=O)Nc3nncs3)cc2Cl)c(Cl)c1` [compound 317] has an IC50 of 1.63 µM.

Compound `Cc1c(Oc2cc(F)c(S(=O)(=O)Nc3nncs3)cc2Cl)ccc(F)c1F` [compound 318, 5-chloro-4-(3,4-difluoro-2-methylphenoxy)-2-fluoro-N-(1,3,4-thiadiazol-2-yl)benzenesulfonamide] has an IC50 of 0.145 µM.

In the case of `COc1c(Oc2cc(F)c(S(=O)(=O)Nc3nncs3)cc2Cl)ccc(F)c1C` [compound 319], the IC50 is reported as > 1.71 µM.

`COc1ccc(Oc2cc(F)c(S(=O)(=O)Nc3nncs3)cc2Cl)cc1Cl` [compound 320] was tested, and the IC50 was > 7.61 µM.

Work on `COc1cccc(C)c1Oc1cc(F)c(S(=O)(=O)Nc2nncs2)cc1Cl` [compound 321] yielded an IC50 of 0.275 µM.

`Cc1cc(Oc2cc(F)c(S(=O)(=O)Nc3nncs3)cc2Cl)ccc1F` [compound 322] was tested, and the IC50 was 2.99 µM.

With `COc1cccc(Oc2cc(F)c(S(=O)(=O)Nc3nncs3)cc2Cl)c1C` [compound 323] the IC50 was 2.17 µM.

Work on `COc1ccc(Oc2cc(F)c(S(=O)(=O)Nc3nncs3)cc2Cl)cc1F` [compound 324] yielded an IC50 of 3.28 µM.

`CC(C)Oc1ccccc1Oc1cc(F)c(S(=O)(=O)Nc2nncs2)cc1Cl` [compound 325] gave an IC50 of 2 µM.

Work on `COc1ccc(Cl)c(Oc2cc(F)c(S(=O)(=O)Nc3nncs3)cc2Cl)c1` [compound 326] yielded an IC50 of 0.369 µM.

For `COc1ccc(C)c(Oc2cc(F)c(S(=O)(=O)Nc3nncs3)cc2Cl)c1` [compound 327], the IC50 was 0.619 µM.

`Cc1ccccc1Oc1cc(F)c(S(=O)(=O)Nc2nncs2)cc1Cl` [compound 328] was tested, and the IC50 was > 0.83 µM.

Compound `COc1c(F)ccc(Oc2cc(F)c(S(=O)(=O)Nc3nncs3)cc2Cl)c1Cl` [compound 329] has an IC50 of 0.606 µM.

In the case of `O=S(=O)(Nc1nncs1)c1cc(Cl)c(Oc2cccc(Cl)c2)cc1F` [compound 330], the IC50 is reported as 2.39 µM.

`CCOc1cc(C)ccc1Oc1cc(F)c(S(=O)(=O)Nc2nncs2)cc1Cl` [compound 331] was tested, and the IC50 was > 6.72 µM.

In the case of `O=S(=O)(Nc1nncs1)c1cc(Cl)c(Oc2c(F)cccc2Cl)cc1F` [compound 332], the IC50 is reported as > 2.38 µM.
